14 compounds from patent publication US6610846B1, “Heteroaromatic glucokinase activators” (Hoffman-La Roche Inc., priority 1999, dated 2003) can be followed below.

The structures appear in SMILES notation.

Take `Cc1nccc(NC(=O)C(CC2CCCC2)c2ccc(S(C)(=O)=O)c(C#N)c2)n1` (centres unmarked) [Example 152, 2-(3-Cyano-4-methanesulfonyl-phenyl)-3-cyclopentyl-N-(2-methyl-pyrimidin-4-yl)-propionamide]: the melting point lay in the range of 89 to 94 °C.
Under `NS(=O)(=O)c1ccc(C(CC2CCCC2)C(=O)Nc2nccs2)cc1` (centres unmarked) [Example 82, 3-Cyclopentyl-2-(4-sulfamoyl-phenyl)-N-thiazol-2-yl-propionamide] stands 179 to 181 °C; under `CS(=O)(=O)c1ccc(C(CC2CCCC2)C(=O)Nc2ccccn2)cc1` (centres unmarked) [Example 42, 3-Cyclopentyl-2-(4-methanesulfonyl-phenyl)-N-pyridin-2-yl-propionamide], 172 to 173 °C; under `O=C(Nc1ccccn1)C(CC1CCCC1)c1ccc(SC(F)(F)F)cc1` (centres unmarked) [Example 41, 3-Cyclopentyl-N-pyridin-2-yl-2-(4-trifluoromethylsulfanyl-phenyl)-propionamide], 101 to 102 °C.
The value for `O=C(Nc1nccs1)C(CC1CCCC1)c1ccc(SC(F)(F)F)cc1` (centres unmarked) [Example 10, 3-Cyclopentyl-N-thiazol-2-yl-2-(4-trifluoromethylsulfanyl-phenyl)-propionamide] was 58 to 60 °C.
Under `CS(=O)(=O)c1ccc(C(CC2CCCC2)C(=O)Nc2ncc(Br)s2)cc1` (centres unmarked) [Example 132, N-(5-Bromo-thiazol-2-yl)-3-cyclopentyl-2-(4-methanesulfonyl-phenyl)-propionamide] stands 73 to 75 °C; under `CS(=O)(=O)c1ccc(C(CC2CCCC2)C(=O)Nc2nccs2)cc1N` (centres unmarked) [Example 68, 2-(3-Amino-4-methanesulfonyl-phenyl)-3-cyclopentyl-N-thiazol-2-yl-propionamide], 207 to 209 °C; under `CS(=O)(=O)c1ccc(C(CC2CCCC2)C(=O)Nc2ccc(CO)cn2)cc1` (centres unmarked) [Example 52, 3-Cyclopentyl-N-(5-hydroxymethyl-pyridin-2-yl)-2-(4-methanesulfonyl-phenyl)-propionamide], 74 to 77 °C.
Compound `O=C(Nc1ncco1)C(CC1CCCC1)c1ccc(Cl)c(Cl)c1` (centres unmarked) [Example 57, 3-Cyclopentyl-2-(3,4-dichlorophenyl)-N-oxazol-2-yl-propionamide] showed a melting point of 134 to 136 °C.
Consider `CSc1ccc(C(CC2CCCC2)C(=O)Nc2ccccn2)cc1` (centres unmarked) [Example 40, 3-Cyclopentyl-2-(4-methylsulfanyl-phenyl)-N-pyridin-2-yl-propionamide], for which the melting point fell in the range of 127 to 128 °C.
`O=C(Nc1nccs1)C(CC1CCCC1)c1ccc(O)cc1` (centres unmarked) [Example 116, 3-Cyclopentyl-2-(4-hydroxy-phenyl)-N-thiazol-2-yl-propionamide]: the melting point fell in the range of 198 to 200 °C.
`O=C(Nc1nccs1)C(CC1CCCC1)c1ccc(O)c(O)c1` (centres unmarked) [Example 114, 3-Cyclopentyl-2-(3,4-dihydroxy-phenyl)-N-thiazol-2-yl-propionamide] showed a melting point of 170 to 173 °C.
Under `O=C(Nc1nccs1)C(CC1CCCC1)c1ccc([N+](=O)[O-])cc1` (centres unmarked) [Example 22(A), 3-Cyclopentyl-2-(4-nitro-phenyl)-N-thiazol-2-yl-propionamide] stands 186 to 187 °C; under `O=C(Nc1ccc([N+](=O)[O-])cn1)C(CC1CCCC1)c1ccc(F)c(C(F)(F)F)c1` (centres unmarked) [Example 167(A), 3-Cyclopentyl-2-(4-fluoro-3-trifluoromethyl-phenyl)-N-(5-nitro-pyridin-2-yl)-propionamide], 121 to 122 °C.

One may read the melting point as the temperature, or range, at which the solid turns liquid.
